Data from patent publication US20100292222A1, “CHEMICAL COMPOUNDS 751” (ASTRAZENECA AB, priority 2009, published 2010).
pIC50: −log10 of the molar value.

Molecular target: T1, Androgen Receptor (AR) (Homo sapiens, UniProt P10275, T878A)
T1 construct: cell based immuno-fluorescence assay using the LNCaP prostate epithelial cell line; host or cells: LNCaP clone FGC prostate carcinoma cells
T1 sequence (P10275 1-920 T878A): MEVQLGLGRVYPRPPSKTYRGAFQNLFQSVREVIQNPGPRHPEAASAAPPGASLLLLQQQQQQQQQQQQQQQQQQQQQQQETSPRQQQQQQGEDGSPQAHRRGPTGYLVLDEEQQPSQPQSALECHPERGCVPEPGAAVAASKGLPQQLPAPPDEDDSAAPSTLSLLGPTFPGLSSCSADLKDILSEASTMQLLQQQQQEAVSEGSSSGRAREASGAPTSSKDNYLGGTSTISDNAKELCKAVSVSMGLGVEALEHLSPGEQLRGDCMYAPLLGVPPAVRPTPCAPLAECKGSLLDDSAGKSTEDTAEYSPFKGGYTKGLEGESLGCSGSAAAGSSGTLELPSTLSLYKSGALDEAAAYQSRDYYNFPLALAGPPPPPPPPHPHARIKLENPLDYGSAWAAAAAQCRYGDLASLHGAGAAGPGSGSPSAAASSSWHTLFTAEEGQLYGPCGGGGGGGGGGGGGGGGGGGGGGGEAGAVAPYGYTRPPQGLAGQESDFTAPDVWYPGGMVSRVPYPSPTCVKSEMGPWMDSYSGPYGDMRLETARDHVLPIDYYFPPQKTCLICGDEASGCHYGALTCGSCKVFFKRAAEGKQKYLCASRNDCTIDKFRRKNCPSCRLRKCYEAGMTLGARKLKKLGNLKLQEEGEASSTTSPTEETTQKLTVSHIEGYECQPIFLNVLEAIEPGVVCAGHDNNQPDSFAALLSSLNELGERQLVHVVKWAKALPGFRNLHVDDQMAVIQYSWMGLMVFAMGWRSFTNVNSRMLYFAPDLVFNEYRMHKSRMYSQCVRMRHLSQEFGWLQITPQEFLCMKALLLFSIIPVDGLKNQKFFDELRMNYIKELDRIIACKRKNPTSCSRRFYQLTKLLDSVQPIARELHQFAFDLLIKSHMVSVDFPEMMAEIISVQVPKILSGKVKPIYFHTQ
Assay: LNCaP Androgen Receptor Down-Regulation Cell Assay
Type: cell-based
Settings: LNCaP prostate carcinoma cell line; 20-22 hours incubation; immunofluorescence; 50% reduction of the AR signal
Experimental: The ability of compounds to reduce Androgen Receptor (AR) numbers was assessed in a cell based immuno-fluorescence assay using the LNCaP prostate epithelial cell line.
This immunofluorescence end point assay measures the ability of a test compound to down-regulate and reduce measured levels of the AR in the LNCaP prostate carcinoma cell line (LNCaP clone FGC (CRL-1740) obtained from the American Type Culture Collection (ATCC)).
LNCaP cells were cultured in Growth Medium (phenol red free Roswell Park Memorial Institute (RPMI) 1640 (Invitrogen Code no. 11835-063) containing 2 mM L-Glutamine (Invitrogen Code no. 25030-024) and 1% (v/v) Penicillin/Streptomycin (10000 units/ml Penicillin and 10000 μg/ml of Streptomycin utilising penicillin G (sodium salt) and streptomycin sulphate: prepared in normal saline, Invitrogen Code no. 15140122) and 10% (v/v) foetal bovine serum (FBS)) in a 5% CO2 air incubator at 37° C. Cells for assay were harvested from T175 stock flasks by washing once in PBS (phosphate buffered saline, pH 7.4) (Invitrogen Code no. 14190-094) and harvested using 5 mls of 1× Trypsin/ethylaminediaminetetraacetic acid (EDTA) (10× Trypsin-EDTA, 5.0 g/L Trypsin, 2.0 g/L of EDTA•4Na and 8.5 g/L of NaCl, without Phenol Red, Invitrogen Code no. 15400-054) diluted in PBS solution. A 5 ml volume of Growth Medium was added to each flask (as above except that 5% (v/v) charcoal stripped FBS (HyClone Code no. SH30068.03) was included instead of 10% (v/v) FBS). Cells were syringed at least twice using a sterile 18G×1.5″ (1.2×40 mm) broad gauge needle and cell density was measured using a haemocytometer. Cells were further diluted in Growth Medium plus 5% (v/v) charcoal stripped FBS and seeded at a density of 6.5×10^3 cells per well (in 90 ul) into transparent, black, tissue culture treated 96 well plates (Packard, No. 6005182).
Test data reported herein was generated using two different compounds preparation and dosing methods. In method (1) a 10 mM compound stock solution in 100% (v/v) DMSO was serially diluted in 4-fold steps in 100% (v/v) DMSO using a Thermo Scientific Matrix SerialMate. The diluted compounds were then further diluted 1 in 30 in assay media using a Thermo Scientific Matrix PlateMate and a 10 μl aliquot of this dilution was dosed to cells manually using a multi-channel pipette. In method (2) starting with a 10 mM compound stock solution, the Labcyte Echo 550 was used to generate a compound concentration response set diluted in 30 μl of assay media. The Echo 550 is a liquid handler that uses acoustic technology to perform direct microplate-to-microplate transfers of DMSO compound solutions. The system can be programmed to transfer volumes as low as […] in multiple increments between microplates and in so doing generates a serial dilution of compound which is then back-filled to normalise the DMSO is concentration across the dilution range. A 10 μl volume of diluted compound is then dosed to cells using a Thermo Scientific Matrix PlateMate.
Plates were incubated overnight at 37° C., 5% CO2. Wells were then dosed with compound prepared by one of the 2 methods above and further incubated for 20-22 hours at 37° C., 5% CO2. Plates were fixed by the addition of 20 μl of 10% (v/v) formaldehyde solution (in PBS) to each well (final formaldehyde conc.=1.67% (v/v)) and left at room temperature for 10 mins. This fixative solution was removed and cells were washed with 250 μl of PBS/0.05% (v/v) Tween 20 (PBST) using an automated plate washer. This process was then repeated twice more.
Immunostaining was performed at room temperature. Cells were permeabilised by the addition of 35 μl of PBS containing 0.5% Tween 20 and incubated for 1 hour at room temperature. Permeabilisation solution was removed and cells were washed with 250 μl of PBST using an automated plate washer. This process was then repeated twice more. […]

Point of comparison: `CC(=O)N1CCN(C[C@@H](C)Oc2ccc(C3CCN(c4ccc5nnc(C(F)(F)F)n5n4)CC3)cc2)CC1` [Example 26, 6-(4-{4-[(1R)-2-(4-acetylpiperazin-1-yl)-1-methylethoxy]phenyl}piperidin-1-yl)-3-(trifluoromethyl)[1,2,4]triazolo[4,3-b]pyridazine], pIC50 6.80. Against it:
- CN1CCN(CCOc2ccc(C3(O)CCN(c4ccc5nnc(C(F)(F)F)n5n4)CC3)cc2F)CC1=O [Example 12, 4-[2-(2-fluoro-4-{4-hydroxy-1-[3-(trifluoromethyl)[1,2,4]triazolo[4,3-b]pyridazin-6-yl]piperidin-4-yl}phenoxy)ethyl]-1-methylpiperazin-2-one] — 0.63 log units lower, 6.17
- C[C@H](O)C(=O)N1CCN(CCOc2ccc(C3CCN(c4ccc5nnc(C(F)(F)F)n5n4)CC3)cc2)CC1 [Example 23, (2S)-1-oxo-1-{4-[2-(4-{1-[3-(trifluoromethyl)[1,2,4]triazolo[4,3-b]pyridazin-6-yl]piperidin-4-yl}phenoxy)ethyl]piperazin-1-yl}propan-2-ol] — 0.75 log units lower, 6.05
- CC(=O)N1CCCN(CCOc2ccc(C3(O)CCN(c4ccc5nnc(C(F)(F)F)n5n4)CC3)c(F)c2)CC1 [Example 41, 4-{4-[2-(4-acetyl-1,4-diazepan-1-yl)ethoxy]-2-fluorophenyl}-1-[3-(trifluoromethyl)[1,2,4]triazolo[4,3-b]pyridazin-6-yl]piperidin-4-ol] — 0.64 log units higher, 7.44
- CC(=O)N1CCN([C@H](C)COc2ccc(C3(O)CCN(c4ccc5nnc(C(F)(F)F)n5n4)CC3)cc2)CC1 (single isomer, unassigned) [Example 44, 4-{4-[2-(4-acetylpiperazin-1-yl)propoxy]phenyl}-1-[3-(trifluoromethyl)[1,2,4]triazolo[4,3-b]pyridazin-6-yl]piperidin-4-ol] — 0.64 log units higher, 7.44
- CC(=O)N1CCN(CCOc2ccc(C3(O)CCN(c4ccc5nnc(C(F)(F)F)n5n4)CC3)c(F)c2)CC1 [Example 35, 4-{4-[2-(4-acetylpiperazin-1-yl)ethoxy]-2-fluorophenyl}-1-[3-(trifluoromethyl)[1,2,4]-triazolo[4,3-b]pyridazin-6-yl]piperidin-4-ol] — within 0.2 log units, 6.85
- CN1CCN(CCCOc2ccc(C3(O)CCN(c4ccc5nnc(C(F)(F)F)n5n4)CC3)c(F)c2)CC1=O [Example 42, 4-[3-(3-fluoro-4-{4-hydroxy-1-[3-(trifluoromethyl)[1,2,4]triazolo[4,3-b]pyridazin-6-yl]piperidin-4-yl}phenoxy)propyl]-1-methylpiperazin-2-one] — within 0.2 log units, 6.77
- COCC(=O)N1CCN(CCOc2ccc(C3CCN(c4ccc5nnc(C(F)(F)F)n5n4)CC3)cc2)CC1 [Example 22, 6-[4-(4-{2-[4-(methoxyacetyl)piperazin-1-yl]ethoxy}phenyl)piperidin-1-yl]-3-(trifluoromethyl)[1,2,4]triazolo[4,3-b]pyridazine] — 0.98 log units lower, 5.82
- CC(=O)N1CCCN([C@H](C)COc2ccc(C3(O)CCN(c4ccc5nnc(C(F)(F)F)n5n4)CC3)cc2)CC1 (single isomer, unassigned) [Example 46, 4-{4-[2-(4-acetyl-1,4-diazepan-1-yl)propoxy]phenyl}-1-[3-(trifluoromethyl)[1,2,4]triazolo[4,3-b]pyridazin-6-yl]piperidin-4-ol] — 0.94 log units higher, 7.74
- CN1CCN(CCOc2ccc(C3CCN(c4ccc5nnc(C(F)(F)F)n5n4)CC3)cc2)CC1=O [Example 2, 1-methyl-4-[2-(4-{1-[3-(trifluoromethyl)[1,2,4]-triazolo[4,3-b]pyridazin-6-yl]piperidin-4-yl}phenoxy)ethyl]piperazin-2-one] — 0.29 log units lower, 6.51
- CO[C@@H](C)C(=O)N1CCN(CCOc2ccc(C3CCN(c4ccc5nnc(C(F)(F)F)n5n4)CC3)cc2)CC1 [Example 25, 6-{4-[4-(2-{4-[(2S)-2-methoxypropanoyl]piperazin-1-yl}ethoxy)phenyl]piperidin-1-yl}-3-(trifluoromethyl)[1,2,4]triazolo[4,3-b]pyridazine] — 0.88 log units lower, 5.92
- CC(C)N1CCN(CCOc2ccc(C3CCN(c4ccc5nnc(C(F)(F)F)n5n4)CC3)cc2)CC1=O [Example 19, 1-(1-methylethyl)-4-[2-(4-{1-[3-(trifluoromethyl)[1,2,4]triazolo[4,3-b]pyridazin-6-yl]piperidin-4-yl}phenoxy)ethyl]piperazin-2-one] — 0.65 log units lower, 6.15
- CC(=O)N1CCN(CCOc2ccc(C3(O)CCN(c4ccc5nnc(C(F)(F)F)n5n4)CC3)cc2)C[C@H]1C [Example 39, 4-(4-{2-[(3R)-4-acetyl-3-methylpiperazin-1-yl]ethoxy}phenyl)-1-[3-(trifluoromethyl) [1,2,4]triazolo[4,3-b]pyridazin-6-yl]piperidin-4-ol] — 0.35 log units higher, 7.15
- O=C1CN(CCOc2ccc(C3(O)CCN(c4ccc5nnc(C(F)(F)F)n5n4)CC3)cc2)CCN1C1CC1 [Example 38, 1-cyclopropyl-4-[2-(4-{4-hydroxy-1-[3-(trifluoromethyl)[1,2,4]triazolo[4,3-b]pyridazin-6-yl]piperidin-4-yl}phenoxy)ethyl]piperazin-2-one] — 0.49 log units lower, 6.31
- CC(=O)N1CCN(C[C@H](C)Oc2ccc(C3CCN(c4ccc5nnc(C(F)(F)F)n5n4)CC3)cc2)CC1 [Example 27, 6-(4-{4-[(1S)-2-(4-acetylpiperazin-1-yl)-1-methylethoxy]phenyl}piperidin-1-yl)-3-(trifluoromethyl) [1,2,4]triazolo[4,3-b]pyridazine] — 0.74 log units lower, 6.06
- CC(=O)N1CCN([C@H](C)COc2ccc(C3(O)CCN(c4ccc5nnc(C(F)(F)F)n5n4)CC3)cc2)CC1 (single isomer, unassigned) [Example 43, 4-{4-[2-(4-acetylpiperazin-1-yl)propoxy]phenyl}-1-[3-(trifluoromethyl)[1,2,4]triazolo[4,3-b]pyridazin-6-yl]piperidin-4-ol] — 0.28 log units higher, 7.08
- COC[C@H](CN1CCN(C(C)=O)CC1)Oc1ccc(C2CCN(c3ccc4nnc(C(F)(F)F)n4n3)CC2)cc1 [Example 28, 6-(4-{4-[(1S)-2-(4-acetylpiperazin-1-yl)-1-(methoxymethyl)ethoxy]phenyl}piperidin-1-yl)-3-(trifluoromethyl)[1,2,4]triazolo[4,3-b]pyridazine] — 0.40 log units lower, 6.40
